According to patent publication US11123332B2 (priority 2018, dated 2021):
“Also recorded” adds a separate entry of the source. Read-outs that look alike come from different tables or passages of the source.

Experiments:
[1] = test system: mouse brain (c-fos expression)
Source text: A unique and novel approach to preclinical testing of psychiatric drugs is based on the proposition that a direct readout of drug-evoked brain activation or inhibition in an animal is the most relevant preclinical assay, because psychiatric drugs exert their effects via activation or inhibition of specific neural circuits and cell types in the brain. […] The method called “pharmacomapping” (implemented by Certerra, Inc. Farmingdale, N.Y.) is based on a largely automated drug-screening platform that comprises whole-brain detection of drug-evoked neuronal activation represented by drug-evoked expression of the immediate early gene (IEG) c-fos (Herrera and Robertson 1996). Until now, the detection of c-fos as a marker of brain activation has been done by laborious methods of in situ hybridization or immunohistochemistry in brain tissue sections, followed by mounting the sections on microscopic slides, manual imaging, and largely visual quantification. Nevertheless, over the last two decades a number of studies used these methods to test drug-evoked activity in the mouse or rat brain for various psychoactive medications, including antipsychotics, antidepressants, stimulants and anxiolytics (Engber et al., 1998; Kiss, 2018; Salminen et al., 1996; SEMBA et al., 1996; Slattery et al., 2005; Sumner et al., 2004).
In contrast to the older methods, the pharmacomapping method uses automated and standardized whole-brain immunostaining and brain clearing together with advanced microscopy (light-sheet fluorescence microscopy, LSFM), computational (e.g. machine learning) and statistical methods (FIG. 1). The first generation of this platform used serial two-photon tomography (STPT) as a method for imaging and c-fos-GFP mice expressing green fluorescent protein (GFP) under the control of the c-fos promoter (US 20140297199A1).

[2] = test system: mouse; assay: forced swim test; type: in vivo; conditions: for time spent in floating (immobility) during a 6 min forced swim: compared to control vehicle-treated group, FIG. 5; for time spent floating in forced swim: single dose 10 mg/kg, vs vehicle
Description: The forced swim test is a frequently used behavioral protocol with a well-established therapeutic predictability for a broad range of antidepressants including ketamine (Porsolt et al. 1977; Cryan and Mombereau 2004; Cryan et al. 2005; Lucki et al. 2001). In this test the mouse is put in a beaker filled with water and the time spent struggling, swimming and floating is measured, with the time spent floating when the mouse stops struggling to swim—being used as a behavioral correlate of depression.

[3] = test system: patients with severe major depressive disorder; conditions: daily oral gaboxadol 5 mg or 10 mg with escitalopram 20 mg, 490 patients; cited from earlier work
[4] = test system: insomnia; conditions: three-month efficacy study; cited from earlier work
[5] = test system: combined delta, theta and alpha activity; conditions: 160 minutes after the first treatment; Nutt et al (2015); cited from earlier work
[6] = cited from earlier work; for Apparent t1/2: harmonic mean N = 10; for Tmax: median N = 10
[7] = acute single dose 10 mg/kg, 10 mg/kg
[8] = 10 mg I.V., geometric mean N = 10
[9] = 10 mg Oral, geometric mean N = 10

SMILES: Oc1noc2c1CCNC2 [gaboxadol, 4,5,6,7-tetrahydroisoxazolo (5,4-c) pyridin-3-ol]
- drug-evoked brain activation (pharmacomap) ([1]; 3 mg/kg alone): neither gaboxadol at 3 mg/kg nor ketamine at 6 mg/kg alone evoked any brain activation detectable
- drug-evoked brain activation (pharmacomap) [1, 7]: very similar brain activation as ketamine
- drug-evoked brain activation (pharmacomap) ([1]; acute single dose 10 mg/kg, listed as Gaboxadol, 10 mg/kg): broad brain activation that is highly similar to that of ketamine
- time spent in floating (immobility) during a 6 min forced swim [2]: significantly reduced
- time spent floating in forced swim ([2]; 1 hour after drug delivery): nearly identical behavioral effect as the ketamine group
- time spent floating in forced swim ([2]; 24 hours after drug delivery): nearly identical behavioral effect as the ketamine group
- additional benefit in treatment of severe major depressive disorder [3]: no additional benefit
- effects in sleep onset and sleep maintenance [4]: failed to show significant effects
- whole head MEG planar gradiometer increase in combined delta, theta and alpha activity [5]: ≥ +3
- fe ([6]; 2.5 mg single oral dose, geometric mean N = 10): 43%
- AUC0-∞ ([6]; 2.5 mg single oral dose, geometric mean N = 10, potency adjusted): 90 ng·h/mL
- Apparent t1/2 ([6]; 2.5 mg single oral dose): 1.5 h
- Tmax ([6]; 2.5 mg single oral dose): 0.5 h
- fe ([6]; 5 mg single oral dose, geometric mean N = 10): 45%
- Apparent t1/2 ([6]; 5 mg single oral dose): 1.5 h
- Tmax ([6]; 5 mg single oral dose): 0.6 h
- AUC0-∞ [6, 8]: 380 ng·h/mL
- fe [6, 8]: 53%
- Apparent t1/2 ([6]; 10 mg I.V.): 1.5 h
- CLR [6, 9]: 250 mL/min
- fe [6, 9]: 53%
- Apparent t1/2 ([6]; 10 mg Oral): 1.6 h
- Tmax ([6]; 10 mg Oral): 0.5 h
- fe ([6]; 15 mg single oral dose, geometric mean N = 10): 50%
- Apparent t1/2 ([6]; 15 mg single oral dose): 1.5 h
- Tmax ([6]; 15 mg single oral dose): 0.5 h
- fe ([6]; 20 mg single oral dose, geometric mean N = 10): 53%
- Apparent t1/2 ([6]; 20 mg single oral dose): 1.6 h
- Tmax ([6]; 20 mg single oral dose): 0.6 h
- dose proportionality of plasma AUC0-∞ and Cmax ([6]; dose range 2.5 to 20 mg oral): dose proportional increases
- half-life (t1/2) ([6]; independent of dose across 2.5 to 20 mg oral): 1.5 h

SMILES: CNC1(c2ccccc2Cl)CCCCC1=O (centres unmarked) [ketamine]
- drug-evoked brain activation (pharmacomap) ([1]; 6 mg/kg alone): neither gaboxadol at 3 mg/kg nor ketamine at 6 mg/kg alone evoked any brain activation detectable
- drug-evoked brain activation (pharmacomap) ([1]; acute single dose 5 mg/kg): modest activation
- drug-evoked brain activation (pharmacomap) [1, 7]: very robust and broad activation; also recorded: very broad activation pattern
- drug-evoked brain activation (pharmacomap) ([1]; acute single dose 100 mg/kg): modest activation
- time spent in floating (immobility) during a 6 min forced swim [2]: significantly reduced
- time spent floating in forced swim ([2]; 1 hour after drug delivery): significantly decreases
- time spent floating in forced swim ([2]; 24 hours after drug delivery): significantly decreases
